Results published in publication PMC5860131, “Identification of natural products as novel ligands for the human 5-HT2C receptor” (Biophysics Reports, 2018).

What was measured:
5-HT2B receptor = target: T1, 5-HT2B receptor (Homo sapiens, UniProt P41595); assay: Ca2+ mobilization assay (Fluo-4, FLIPR), HEK 293T cells stably transfected with 5-HT2B; format: cell-based
T1 construct: expressed in transfected cells; host or cells: HEK 293T, stably transfected
From the text: The 5-HT2C receptor mainly couples to Gαq proteins. The activated 5-HT2C receptor transmits the signals from the extracellular to the intercellular side using DAG/IP3 (diacyl glycerol/inositol 1,4,5-trisphosphate) as its second massagers (Hannon and Hoyer [2008]). IP3 stimulates the endoplasmic reticulum to release calcium ions into the cytoplasm, which causes the increase of calcium concentration in cytosol. Therefore, calcium mobilization assay is commonly applied to understand how unknown small molecule ligands of 5-HT2C receptor modulate cellular signal transductions. In this case, Fluo-4 Direct dye was used as a fluorescence indicator to detect calcium flux in G protein-coupled receptor expressed cells. The fold of maximum response over average of basal reading is plotted against compound concentration to determine the potency of the compounds (Fig. 3). […]. […] After the dye loaded, cells were placed in a FLIPR^TETRA fluorescence imaging plate reader (Molecular Devices); drug dilutions, prepared at 3× final concentration in FLIPR buffer and aliquotted into 384-well plates, were also added to the FLIPR^TETRA. The fluidics module and plate reader of the FLIPR^TETRA were programmed to read baseline fluorescence for 10 s (1 read/s), then to add 10 μl of drug/well and to read for 6 min (1 read/s). […]

5-HT2C receptor = target: T2, 5-HT2C receptor (Homo sapiens, UniProt P28335, DEL255-298/G251D/H250E/H252N/INS299[…]/L248D/M247A/M300L/T253W); format: binding
T2 construct: the N- and C-terminals were truncated by 39 and 65 residues, respectively; FLAG (N); PreScission protease site + 10× His (C); made in house; host or cells: Spodoptera frugiperda (Sf9), baculovirus

[1] = target: T3, 5-HT2C receptor G218^5.42A (Homo sapiens, UniProt P28335, DEL255-298/G218A/G251D/H250E/H252N/INS299[…]/L248D/M247A/M300L/T253W); assay: CPM thermal stability assay, 5-HT2C mutant G218A; format: binding
T3 construct: the N- and C-terminals were truncated by 39 and 65 residues, respectively; PreScission protease site + 10× His (C); made in house
From the text: Based on the binding poses predicted by molecular docking, single-point mutations were designed to test their impact on ligand binding. Mutations of several residues include the highly conserved Asp134^3.32, which is known to cause 5-HT1B or 5-HT2B receptors to abolish the monoamine ligand binding as reported in the literature (Wang et al. [2013]). In this study, residues forming hydrophobic interactions with the substitution groups on the aporphine scaffold of (–)-crebanine (1) were selected for mutation as well and they are Thr139^3.37, Gly218^5.42, Ala222^5.46, and Leu209^ECL2. Effects of those mutations were tested with the CPM assay and the affinity MS assay (Table 2). In the affinity MS experiment, relative ligand-binding capacity (represented by binding %) to different mutants and the wild-type receptor was compared. […]
Purified 5-HT2C receptor protein was thoroughly mixed with CPM fluorescent dyes. […] Fluorescence signals, wavelength 387 nm (excitation) and 463 nm (emission), were monitored (Alexandrov et al. [2008]). […] The thermal denaturation of the samples was evaluated using the scatter plot curve, where the horizontal coordinates represented temperature and the vertical coordinates indicated normalized fluorescence intensity recorded for a particular temperature. […]

T2 sequence (P28335 with tags, fused parts or gaps with the stated changes limits assumed): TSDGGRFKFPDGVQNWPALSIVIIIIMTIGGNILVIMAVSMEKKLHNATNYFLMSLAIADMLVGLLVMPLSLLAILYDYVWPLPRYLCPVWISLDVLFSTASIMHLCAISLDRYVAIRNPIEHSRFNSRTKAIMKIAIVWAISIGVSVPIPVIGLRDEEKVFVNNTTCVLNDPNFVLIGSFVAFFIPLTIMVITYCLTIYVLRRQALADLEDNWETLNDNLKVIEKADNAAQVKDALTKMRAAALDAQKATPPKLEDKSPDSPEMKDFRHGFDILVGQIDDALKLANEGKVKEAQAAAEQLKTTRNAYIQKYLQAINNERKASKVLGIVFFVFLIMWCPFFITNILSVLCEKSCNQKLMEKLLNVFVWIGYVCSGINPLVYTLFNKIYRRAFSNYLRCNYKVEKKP
T3 sequence (P28335 with tags, fused parts or gaps with the stated changes): as the sequence (P28335 with tags, fused parts or gaps with the stated changes limits assumed) above, with G179A counted along it
T1 sequence (P41595 whole entry): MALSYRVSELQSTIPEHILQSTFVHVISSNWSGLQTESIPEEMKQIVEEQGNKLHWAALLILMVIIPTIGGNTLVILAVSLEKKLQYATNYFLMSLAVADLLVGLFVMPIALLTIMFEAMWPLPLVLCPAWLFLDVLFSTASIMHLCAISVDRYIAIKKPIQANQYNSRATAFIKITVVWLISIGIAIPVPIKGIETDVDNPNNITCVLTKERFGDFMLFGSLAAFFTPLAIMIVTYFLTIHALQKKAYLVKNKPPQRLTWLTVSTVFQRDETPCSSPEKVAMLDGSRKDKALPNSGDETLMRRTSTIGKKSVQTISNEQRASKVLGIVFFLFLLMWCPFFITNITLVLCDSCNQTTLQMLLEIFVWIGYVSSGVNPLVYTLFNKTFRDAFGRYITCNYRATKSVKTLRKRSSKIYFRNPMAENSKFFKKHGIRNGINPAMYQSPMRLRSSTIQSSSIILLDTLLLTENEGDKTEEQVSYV

For COc1ccc2c(c1OC)C[C@@H]1c3c(cc4c(c3-2)OCO4)CCN1C [Compound 1, (–)-crebanine], which IC50 (5-HT2B receptor) is on record?
Its IC50 is 1690 nM.

And the “(–)-Crebanine/MS relative ligand binding” value (5-HT2C receptor; WT receptor, n = 2, MS response of released ligand divided by total ligand in incubation sample)?
The value was 27.57%.

What about the S/C (5-HT2C receptor; ratio of MS response in 5-HT2C incubation sample versus control (hydroxycarboxylic acid receptor 2), 500 nmol/L protein, 250 nmol/L ligand, n = 4) of the same compound?
The S/C was 9.15 ± 1.43.

And the “(–)-Crebanine/CPM (Tm)” value ([1]; mutant G218^5.42A, n = 2)?
Its value is 53.92 °C.

What about the “Tm value decrease versus wild-type” value ([1]; mutation Gly218^5.42Ala) of the same compound?
The value was “over 6.0 °C”.
